Measured values: patent publication US20250313563A1, “GLYCOGEN SYNTHASE KINASE 3 INHIBITORS AND USES THEREOF” (The Broad Institute, Inc., priority 2022, published 2025)
Read-outs that look alike come from different tables or passages of the source.

Assays:
[1] = biological target: GSK3b (GST-full length GSK3b) (Homo sapiens (Human), UniProt P49841); assay: GSK3b TR-FRET kinase assay; format: biochemical
How it was run: (§1)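 Full-length GST-tagged human enzyme (1 nM) is exposed to test compound for 30 min before substrates are added. Phosphorylation of a primed biotinylated glycogen synthase peptide proceeds 100 min at room temperature at low ATP (4 μM α; 2 μM β) or high ATP (1 mM). Product is quantified by TR-FRET.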

[2] = biological target: GSK3α (GST-full length GSK3α) (Homo sapiens (Human), UniProt P49840); assay: GSK3α TR-FRET kinase assay; format: biochemical
How it was run: as §1

[3] = system: MDR1-MDCK cell monolayers; assay: MDR1/MDCK assay (blood-brain barrier penetration potential); format: in vitro ADME; conditions: 5 μM, pH 7.4, 120 minutes; for MDCK permeability (MDR1-MDCK); Mean; Papp (A − B): A to B; for MDCK permeability (MDR1-MDCK); Mean; Papp (B − A): B to A
Procedure: The MDR1/MDCK assay is run at Absorption Systems. This assay is used to determine the blood-brain barrier (BBB) penetration potential of a test compound using MDR1-MDCK cell monolayers. Catalog number EA203.
• Test compound at 5 μM in HBSSg with maximum DMSO concentration not greater than 1%.
• Confluent monolayers of MDR1-MDCK cells, 7 to 11 days old.
• Receiver well with 1% BSA in modified Hanks buffer (HBSSg) • Apical and basolateral side at pH 7.4 • Dose two monolayers in each direction (N=2) • Dose apical side for (A to B) assessment • Dose basolateral side for (B to A) assessment • Sample both apical and basolateral sides at 120 minutes • Determine the concentrations of test compound using a generic LC-MS/MS method with a minimum 4 point calibration curve.
• The quality of the cell monolayer batch is verified using control compounds before monolayers are released for use • The quality of each monolayer used in the assay is verified by a TEER measurement and by calculating the Papp for a control compound.

[4] = read-out: GSK3-B (TR-FRET 1 mM ATP), GMean, IC50, 1 mM ATP, geometric mean
[5] = read-out: GSK3-A (TR-FRET 1 mM ATP), GMean, IC50, 1 mM ATP, geometric mean
[6] = 1 nM GSK3b, 2 μM ATP, 30 minute preincubation, Table 16, read-out: GSK3-B TR-FRET BIOCHEMICAL (TR-FRET), IC50
[7] = 1 nM GSK3α, 4 μM ATP, 30 minute preincubation, Table 16, read-out: GSK3-A TR-FRET BIOCHEMICAL (TR-FRET), IC50
[8] = 1 nM GSK3b, 2 μM ATP, 30 minute preincubation, Table 16, read-out: GSK3-B TR-FRET BIOCHEMICAL (TR-FRET)
[9] = 1 nM GSK3α, 4 μM ATP, 30 minute preincubation, Table 16, read-out: GSK3-A TR-FRET BIOCHEMICAL (TR-FRET)
[10] = GSK3-B (TR-FRET 1 mM ATP), GMean, IC50, 1 mM ATP, geometric mean
[11] = GSK3-A (TR-FRET 1 mM ATP), GMean, IC50, 1 mM ATP, geometric mean

GSK3b (GST-full length GSK3b), sequence (P49841 whole entry): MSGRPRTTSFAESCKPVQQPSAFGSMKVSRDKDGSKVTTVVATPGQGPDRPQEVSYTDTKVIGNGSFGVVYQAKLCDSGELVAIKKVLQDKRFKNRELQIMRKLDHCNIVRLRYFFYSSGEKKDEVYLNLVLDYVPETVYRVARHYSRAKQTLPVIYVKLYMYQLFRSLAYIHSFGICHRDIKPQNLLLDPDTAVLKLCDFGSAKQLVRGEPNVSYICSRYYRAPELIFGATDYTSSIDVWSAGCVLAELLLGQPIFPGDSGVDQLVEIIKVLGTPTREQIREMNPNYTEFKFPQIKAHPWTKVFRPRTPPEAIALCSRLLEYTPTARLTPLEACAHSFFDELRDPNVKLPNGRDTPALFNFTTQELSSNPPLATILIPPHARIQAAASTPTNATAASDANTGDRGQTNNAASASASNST
GSK3α (GST-full length GSK3α), sequence (P49840 whole entry): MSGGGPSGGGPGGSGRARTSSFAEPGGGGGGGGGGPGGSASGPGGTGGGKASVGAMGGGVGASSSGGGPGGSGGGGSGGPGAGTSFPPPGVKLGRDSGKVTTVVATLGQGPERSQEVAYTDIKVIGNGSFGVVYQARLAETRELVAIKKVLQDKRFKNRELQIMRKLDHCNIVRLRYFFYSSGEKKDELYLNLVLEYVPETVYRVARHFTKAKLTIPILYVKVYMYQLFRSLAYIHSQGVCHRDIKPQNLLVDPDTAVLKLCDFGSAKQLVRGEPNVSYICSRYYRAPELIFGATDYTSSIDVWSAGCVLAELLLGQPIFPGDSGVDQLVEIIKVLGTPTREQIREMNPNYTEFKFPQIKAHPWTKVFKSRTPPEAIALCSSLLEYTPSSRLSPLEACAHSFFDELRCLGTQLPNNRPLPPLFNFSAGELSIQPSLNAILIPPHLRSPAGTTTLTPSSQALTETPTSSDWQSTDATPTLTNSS

IC50 [1, 4] [nM]	IC50 [2, 5] [nM]	IC50 [1, 6] [nM]	IC50 [2, 7] [nM]	IC50 [1, 8] [nM]	IC50 [2, 9] [nM]	SMILES	other results
100 to 1000	1000 to 5000	–	–	–	–	CN(C)S(=O)(=O)c1cccc(C2(C)C3=C(CC(C)(C)CC3=O)Nc3n[nH]c(CC(C)(C)C)c32)c1 (stereo not drawn) [Compound 126012]	MDCK permeability (MDR1-MDCK); Mean; Papp Ratio (B − A/A − B) (efflux ratio) [3]: 120; MDCK permeability (MDR1-MDCK); Mean; Papp (A − B) [3]: 0.47 10^−6 cm/s; MDCK permeability (MDR1-MDCK); Mean; Papp (B − A) [3]: 56.2 10^−6 cm/s
100 to 1000	100 to 1000	–	–	–	–	Cn1cncc1-c1cccc(C2(C)C3=C(CC(C)(C)CC3=O)Nc3n[nH]c(CC(C)(C)C)c32)c1 (stereo not drawn) [Compound 126014]	MDCK permeability (MDR1-MDCK); Mean; Papp Ratio (B − A/A − B) (efflux ratio) [3]: 187; MDCK permeability (MDR1-MDCK); Mean; Papp (A − B) [3]: 0.17 10^−6 cm/s; MDCK permeability (MDR1-MDCK); Mean; Papp (B − A) [3]: 32.1 10^−6 cm/s
100 to 1000	1000 to 5000	–	–	–	–	C[S+]([O-])c1cccc(C2(C)C3=C(CC(C)(C)CC3=O)Nc3n[nH]c(CC(C)(C)C)c32)c1 (stereo not drawn) [Compound 126190]	MDCK permeability (MDR1-MDCK); Mean; Papp Ratio (B − A/A − B) (efflux ratio) [3]: 199; MDCK permeability (MDR1-MDCK); Mean; Papp (A − B) [3]: 0.08 10^−6 cm/s; MDCK permeability (MDR1-MDCK); Mean; Papp (B − A) [3]: 15.7 10^−6 cm/s
100 to 1000	1000 to 5000	–	–	–	–	Cn1cc(-c2cccc(C3(C)C4=C(CC(C)(C)CC4=O)Nc4n[nH]c(CC(C)(C)C)c43)c2)cn1 (stereo not drawn) [Compound 126393]	MDCK permeability (MDR1-MDCK); Mean; Papp Ratio (B − A/A − B) (efflux ratio) [3]: 92.5; MDCK permeability (MDR1-MDCK); Mean; Papp (A − B) [3]: 0.59 10^−6 cm/s; MDCK permeability (MDR1-MDCK); Mean; Papp (B − A) [3]: 54.5 10^−6 cm/s
100 to 1000	1000 to 5000	–	–	–	–	CC(C)(C)Cc1[nH]nc2c1C(C)(c1cccc(S(=O)(=O)C(F)(F)F)c1)C1=C(CC(C)(C)CC1=O)N2 (stereo not drawn) [Compound 126395]	MDCK permeability (MDR1-MDCK); Mean; Papp Ratio (B − A/A − B) (efflux ratio) [3]: 8.9; MDCK permeability (MDR1-MDCK); Mean; Papp (A − B) [3]: 6.48 10^−6 cm/s; MDCK permeability (MDR1-MDCK); Mean; Papp (B − A) [3]: 57.6 10^−6 cm/s
100 to 1000	1000 to 5000	–	–	–	–	CC(C)(C)Cc1[nH]nc2c1C(C)(c1cccc(N3CCOCC3)c1)C1=C(CC(C)(C)CC1=O)N2 (stereo not drawn) [Compound 126400]	MDCK permeability (MDR1-MDCK); Mean; Papp Ratio (B − A/A − B) (efflux ratio) [3]: 119; MDCK permeability (MDR1-MDCK); Mean; Papp (A − B) [3]: 0.41 10^−6 cm/s; MDCK permeability (MDR1-MDCK); Mean; Papp (B − A) [3]: 48.9 10^−6 cm/s
> 5000	> 5000	1000 to 5000	100 to 1000	–	–	CCC1(c2cccc(-c3cnn(-c4ccccn4)c3)c2)C2=C(CC(C)(C)NC2=O)Nc2n[nH]cc21 (stereo not drawn) [Compound 952566]	–
–	–	100 to 1000	≤ 100	–	–	CC[C@@]1(c2cccc(C(F)(F)F)c2)C2=C(CCN(c3ccsc3)C2=O)Nc2n[nH]cc21 [Compound 952630]	–
–	–	> 5000	> 5000	–	–	CC[C@]1(c2cccc(C(F)(F)F)c2)C2=C(CCN(c3ccsc3)C2=O)Nc2n[nH]cc21 [Compound 952636]	–
–	–	> 5000	> 5000	–	–	CC[C@]1(c2cccc(C(F)(F)F)c2)C2=C(CCN(c3cscn3)C2=O)Nc2n[nH]cc21 [Compound 952638]	–
–	–	100 to 1000	≤ 100	–	–	CCC1(c2cccc(-c3ccnc4c3CCCC4)c2)C2=C(CC(C)(C)C2=O)Nc2n[nH]cc21 (stereo not drawn) [Compound 952752]	–
–	–	100 to 1000	≤ 100	–	–	CC[C@]1(c2cccc(-c3ccnc(OC)c3Cl)c2)C2=C(CC(C)(C)NC2=O)Nc2n[nH]cc21 [Compound 952754]	–
–	–	> 5000	1000 to 5000	–	–	CC[C@]1(c2cccc(-c3ccncc3C(F)(F)F)c2)C2=C(CC(C)(C)C2=O)Nc2n[nH]cc21 [Compound 952757]	–
1000 to 5000	100 to 1000	≤ 100	≤ 100	–	–	CC[C@@]1(c2cccc(-c3ccncc3C(F)(F)F)c2)C2=C(CC(C)(C)C2=O)Nc2n[nH]cc21 [Compound 952759]	–
–	–	> 5000	> 5000	–	–	CC[C@]1(c2cccc(-c3c(C)cnc4c(C)cccc34)c2)C2=C(CC(C)(C)NC2=O)Nc2n[nH]cc21 [Compound 952760]	–
–	–	100 to 1000	≤ 100	–	–	CC[C@]1(c2cccc(-c3ccnc4c(C)cccc34)c2)C2=C(CC(C)(C)NC2=O)Nc2n[nH]cc21 [Compound 952909]	–
–	–	–	–	> 5000	> 5000	CC[C@@]1(c2ccccc2)C2=C(Nc3n[nH]cc31)[C@@H](F)C(C)(C)CC2=O [Compound 957196]	–
–	–	–	–	1000 to 5000	100 to 1000	CC[C@@]1(c2ccccc2)C2=C(Nc3n[nH]cc31)[C@H](F)C(C)(C)CC2=O [Compound 957197]	IC50 [1, 10]: > 5000 nM; IC50 [2, 11]: > 5000 nM

IC50 [1, 4] [nM]	IC50 [2, 5] [nM]	IC50 [1, 6] [nM]	IC50 [2, 7] [nM]	IC50 [1, 8] [nM]	IC50 [2, 9] [nM]	SMILES	other results
–	–	–	–	> 5000	> 5000	CC[C@]1(c2ccccc2)C2=C(Nc3n[nH]cc31)[C@@H](F)C(C)(C)CC2=O [Compound 957199]	–
–	–	–	–	100 to 1000	100 to 1000	CC[C@]1(c2ccccc2)C2=C(Nc3n[nH]cc31)[C@H](F)C(C)(C)CC2=O [Compound 957200]	IC50 [1, 10]: > 5000 nM; IC50 [2, 11]: > 5000 nM
–	–	–	–	1000 to 5000	100 to 1000	CC[C@]1(c2ccccc2)C2=C(CC(C)(C)[C@H](F)C2=O)Nc2n[nH]cc21 [Compound 957403]	–
–	–	–	–	> 5000	> 5000	CC[C@]1(c2ccccc2)C2=C(CC(C)(C)[C@@H](F)C2=O)Nc2n[nH]cc21 [Compound 957404]	–
–	–	–	–	1000 to 5000	100 to 1000	CC[C@@]1(c2ccccc2)C2=C(CC(C)(C)[C@H](F)C2=O)Nc2n[nH]cc21 [Compound 957405]	–
–	–	–	–	> 5000	> 5000	CC[C@@]1(c2ccccc2)C2=C(CC(C)(C)[C@@H](F)C2=O)Nc2n[nH]cc21 [Compound 957406]	–
–	–	> 5000	> 5000	–	–	CC[C@@]1(c2cccc(C(F)(F)F)c2)C2=C(CC(C)(C)NC2=O)Nc2n[nH]c(F)c21 [Compound 957497]	–
> 5000	–	–	–	1000 to 5000	100 to 1000	CCC1(c2cccc(-c3cnn(C)c3)c2)C2=C(Nc3n[nH]cc31)C(F)C(C)(C)CC2=O (stereo not drawn) [Compound 957504]	–
> 5000	1000 to 5000	–	–	1000 to 5000	≤ 100	CC[C@@]1(c2cccc(-c3cnn(C)c3)c2)C2=C(Nc3n[nH]cc31)[C@H](F)C(C)(C)CC2=O [Compound 957505]	–
1000 to 5000	≤ 100	–	–	≤ 100	≤ 100	CC[C@@]1(c2cccc(-c3ccnn3C)c2)C2=C(Nc3n[nH]cc31)[C@H](F)C(C)(C)CC2=O [Compound 957507]	–
–	–	–	–	> 5000	> 5000	CC[C@]1(c2cccc(-c3ccnn3C)c2)C2=C(Nc3n[nH]cc31)[C@H](F)C(C)(C)CC2=O [Compound 957508]	–
–	–	–	–	> 5000	100 to 1000	CCC1(c2cccc(-c3ccnn3C)c2)C2=C(Nc3n[nH]cc31)C(F)C(C)(C)CC2=O (stereo not drawn) [Compound 957509]	–
–	–	–	–	> 5000	1000 to 5000	CCC1(c2cccc(-c3cnn(C)c3)c2)C2=C(Nc3n[nH]cc31)C(F)C(C)(C)CC2=O (stereo not drawn) [Compound 957510]	–
–	–	100 to 1000	≤ 100	–	–	CC[C@]1(c2cccc(C(F)(F)F)c2)C2=C(CC(C)(C)NC2=O)Nc2n[nH]c(F)c21 [Compound 957518]	–
> 5000	1000 to 5000	–	–	100 to 1000	≤ 100	CCC1(c2cccc(-c3ccncc3)c2)C2=C(Nc3n[nH]cc31)C(F)C(C)(C)CC2=O (stereo not drawn) [Compound 959341]	–
–	–	–	–	> 5000	1000 to 5000	CCC1(c2cccc(-c3ccncc3)c2)C2=C(Nc3n[nH]cc31)C(F)C(C)(C)CC2=O (stereo not drawn) [Compound 959342]	–
–	–	–	–	> 5000	> 5000	CC[C@]1(c2cccc(-c3ccncc3)c2)C2=C(Nc3n[nH]cc31)[C@@H](F)C(C)(C)CC2=O [Compound 959344]	–
–	–	–	–	≤ 100	≤ 100	CCC1(c2cccc(-c3cncn3C(C)C)c2)C2=C(Nc3n[nH]cc31)C(F)C(C)(C)CC2=O (stereo not drawn) [Compound 963155]	–
